In patent publication US20260232666A1, “COMPOSITIONS AND METHODS FOR INHIBITION OF RAS” (TheRas, Inc., priority 2023, published 2026):

How the values were obtained:
[1] = biological target: T1, GDP-loaded KRAS4b (amino acids 1-169) G12C/C118S protein (Homo sapiens, UniProt P01116, C118S/G12C); test: Covalent cysteine 12 modification by MALDI-TOF MS, GDP-loaded KRAS G12C; type: binding; settings: 15 minutes reaction time point
T1 construct: KRAS4b (amino acids 1-169) G12C/C118S protein; made in house
Outline: (§1)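 With several adducts, each species' height is expressed as a fraction of all observed protein peaks, scored on linear-mode spectra. Reactions run at pH 7.3 (HEPES, 150 mM NaCl, 1 mM MgCl2), using 1 μM protein and a 1:2.5 protein:compound ratio, and are sampled after 15 minutes in the dark.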

[2] = biological target: T2, GppNHp-loaded KRAS4b (amino acids 1-169) G12C/C118S protein (Homo sapiens, UniProt P01116, C118S/G12C); test: Covalent cysteine 12 modification by MALDI-TOF MS, GppNHp-loaded KRAS G12C; type: binding; settings: 15 minutes reaction time point
T2 construct: KRAS4b (amino acids 1-169) G12C/C118S protein; made in house
Outline: as §1

[3] = biological target: T3, Avi-KRAS G12C (1-169) GppNHp/RAF1 RBD-3×FLAG (52-151) (Homo sapiens, UniProt P01116, G12C); test: Raf1 RBD-KRAS G12C-GppNHp disruption assay (protein:protein interaction HTRF); type: biochemical
T3 construct: Avi-KRAS G12C (1-169) GppNHp; Avi (N)
Outline: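 HTRF measuring RAF1 RBD binding to GppNHp-loaded KRAS G12C (50 nM) in Tris pH 7.5, 100 mM NaCl, 5 mM MgCl2, 10% DMSO. Compound, KRAS, RBD and detection reagents each added sequentially with 1 h room-temperature incubations; 10-point titration; excitation 320 nm, emission 615 nm; activity as % of DMSO; IC50 derived.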

Row | SMILES | GDP-KRAS G12C percent of modification [1] | GppNHp-KRAS G12C percent of modification [2] | IC50 [3]
1 | C=CC(=O)N1CC[C@@H](N(C)c2nc(OC[C@@]34CCCN3C[C@H](F)C4)nc3cc(-c4ccc(F)c5sc(N)c(C#N)c45)c(F)cc23)[C@@H]1C [Compound 31] | A (percent of modification ≥70%) | A (percent of modification ≥70%) | < 500 nM
2 | C=CC(=O)N1CC[C@@H](N(C)c2nc(OC[C@@H]3C[C@@H](OC)CN3C)nc3c(F)c(-c4ccc(F)c5sc(N)c(C#N)c45)c(C(F)(F)F)cc23)[C@@H]1C [Compound 33] | B (50≤percent of modification <70%) | A (percent of modification ≥70%) | < 500 nM
3 | C=CC(=O)N1C2CCC1CN(c1nc(OC[C@@]34CCCN3C[C@H](F)C4)nc3c(F)c(-c4ccc(F)c5sc(N)c(C#N)c45)c(C(F)(F)F)cc13)C2 [Compound 34] | B (50≤percent of modification <70%) | C (10%≤percent of modification <50%) | < 500 nM
4 | C=CC(=O)N1C2CC1CN(c1nc(OC[C@@]34CCCN3C[C@H](F)C4)nc3c(F)c(-c4ccc(F)c5sc(N)c(C#N)c45)c(C(F)(F)F)cc13)C2 [Compound 35] | A (percent of modification ≥70%) | C (10%≤percent of modification <50%) | < 500 nM
5 | C=CC(=O)N1C[C@H]2CC[C@@H]1CN2c1nc(OC[C@@]23CCCN2C[C@H](F)C3)nc2c(F)c(-c3ccc(F)c4sc(N)c(C#N)c34)c(C(F)(F)F)cc12 [Compound 36] | D (percent of modification <10%) | D (percent of modification <10%) | 500 to 5000 nM
6 | C=CC(=O)N1CC[C@@H](N(C)c2nc(OC[C@@H]3C[C@@H](OC)CN3CC)nc3c(F)c(-c4ccc(F)c5sc(N)c(C#N)c45)c(C(F)(F)F)cc23)[C@@H]1C [Compound 101] | A (percent of modification ≥70%) | A (percent of modification ≥70%) | < 500 nM
7 | C=CC(=O)N1CC[C@@H](N(C)c2nc(OC[C@@H]3C[C@@H](OC)CN3CC)nc3c(F)c(-c4ccc(F)c5sc(N)c(C#N)c45)c(C(F)(F)F)cc23)[C@H]1C [Compound 104] | A (percent of modification ≥70%) | A (percent of modification ≥70%) | < 500 nM
8 | C=CC(=O)N1CC[C@@H](N(C)c2nc(OC[C@@H]3C[C@@H](F)CN3CC)nc3c(F)c(-c4ccc(F)c5sc(N)c(C#N)c45)c(Cl)cc23)[C@@H]1C [Compound 105] | B (50≤percent of modification <70%) | A (percent of modification ≥70%) | < 500 nM
9 | C=CC(=O)N1CCN(c2nc(OC[C@@]34CCCN3C[C@H](F)C4)nc3c(F)c(-c4ccc(F)c5sc(N)c(C#N)c45)c(C(F)(F)F)cc23)C2CC21 (stereo partly drawn) [Compound 106] | A (percent of modification ≥70%) | A (percent of modification ≥70%) | < 500 nM
10 | C=CC(=O)N1CC[C@@H](N(C)c2nc(OC[C@@H]3C[C@@H](F)CN3CC)nc3c(F)c(-c4ccc(F)c5sc(N)c(C#N)c45)c(C(F)(F)F)cc23)[C@H]1C [Compound 107] | A (percent of modification ≥70%) | A (percent of modification ≥70%) | < 500 nM
11 | C=CC(=O)N1C[C@H](N(C)c2nc(OC[C@@]34CCCN3C[C@H](F)C4)nc3c(F)c(-c4ccc(F)c5sc(N)c(C#N)c45)c(C(F)(F)F)cc23)C[C@@H]1C [Compound 108] | B (50≤percent of modification <70%) | A (percent of modification ≥70%) | < 500 nM
12 | C=CC(=O)N1C[C@H](N(C)c2nc(OC[C@@]34CCCN3C[C@H](F)C4)nc3cc(-c4ccc(F)c5sc(N)c(C#N)c45)c(F)cc23)C[C@@H]1C [Compound 109] | A (percent of modification ≥70%) | C (10%≤percent of modification <50%) | < 500 nM
13 | C=CC(=O)N1CC[C@@H](N(C)c2nc(OC[C@@]34CCCN3C[C@H](F)C4)nc3cc(-c4nc(N)cc(C)c4C(F)(F)F)c(F)cc23)[C@H]1C [Compound 110] | A (percent of modification ≥70%) | A (percent of modification ≥70%) | < 500 nM
14 | C=CC(=O)N1CC[C@@H](N(C)c2nc(OC[C@@H]3CC4(CC4)CN3C)nc3c(F)c(-c4ccc(F)c5sc(N)c(C#N)c45)c(C(F)(F)F)cc23)[C@@H]1C [Compound 112] | D (percent of modification <10%) | D (percent of modification <10%) | 500 to 5000 nM
15 | C=CC(=O)N1CC[C@@H](N(C)c2nc(OC[C@@]34CCCN3C[C@H](F)C4)nc3c(F)c(-c4nc(N)cc(C)c4C(F)(F)F)ccc23)[C@H]1C [Compound 115] | A (percent of modification ≥70%) | A (percent of modification ≥70%) | < 500 nM
16 | C=CC(=O)N1CC[C@@H](N(C)c2nc(OC[C@@H]3CCCN3C)nc3c(F)c(-c4nc(N)cc(C)c4C(F)(F)F)c(C(F)(F)F)cc23)[C@H]1C [Compound 122] | A (percent of modification ≥70%) | A (percent of modification ≥70%) | < 500 nM
17 | C=CC(=O)N1C[C@@H](C)N(c2nc(OC[C@@]34CCCN3C[C@H](F)C4)nc3c(F)c(-c4ccc(F)c5sc(N)c(C#N)c45)c(C(F)(F)F)cc23)C[C@@H]1C [Compound 124] | B (50≤percent of modification <70%) | C (10%≤percent of modification <50%) | < 500 nM
18 | C=CC(=O)N1CC[C@@H](N(CC)c2nc(OC[C@@H]3CCCN3C)nc3cc(-c4ccc(F)c5sc(N)c(C#N)c45)c(F)cc23)[C@H]1C [Compound 138] | A (percent of modification ≥70%) | A (percent of modification ≥70%) | < 500 nM
19 | C=CC(=O)N1CC[C@@H](N(CC)c2nc(OC[C@@H]3C[C@@H](F)CN3C)nc3cc(-c4ccc(F)c5sc(N)c(C#N)c45)c(F)cc23)[C@H]1C [Compound 139] | A (percent of modification ≥70%) | A (percent of modification ≥70%) | < 500 nM
20 | C=CC(=O)N1CC[C@@H](N(CC)c2nc(OC[C@@H]3C[C@@H](OC)CN3C)nc3cc(-c4ccc(F)c5sc(N)c(C#N)c45)c(F)cc23)[C@H]1C [Compound 140] | A (percent of modification ≥70%) | A (percent of modification ≥70%) | < 500 nM
21 | C=CC(=O)N1CC[C@@H](N(CC)c2nc(OC[C@@H]3CCCN3C)nc3c(F)c(-c4ccc(F)c5sc(N)c(C#N)c45)ccc23)[C@H]1C [Compound 141] | A (percent of modification ≥70%) | A (percent of modification ≥70%) | < 500 nM
22 | C=CC(=O)N1CC[C@@H](N(CC)c2nc(OC[C@@H]3C[C@@H](F)CN3C)nc3c(F)c(-c4ccc(F)c5sc(N)c(C#N)c45)ccc23)[C@H]1C [Compound 142] | A (percent of modification ≥70%) | A (percent of modification ≥70%) | < 500 nM
23 | C=CC(=O)N1CC[C@@H](N(C)c2nc(OC[C@@H]3C[C@@H](F)CN3CC)nc3c(F)c(-c4ccc(F)c5sc(N)c(C#N)c45)c(C(F)(F)F)cc23)[C@@H]1C [Compound 144] | C (10%≤percent of modification <50%) | C (10%≤percent of modification <50%) | < 500 nM
24 | C=CC(=O)N1CC[C@@H](N(C)c2nc(OC[C@@H]3C[C@@H](F)CN3C)nc3c(F)c(-c4nc(N)cc(C)c4C(F)(F)F)c(C(F)(F)F)cc23)[C@H]1C [Compound 145] | A (percent of modification ≥70%) | B (50≤percent of modification <70%) | < 500 nM
